ChEMBL document CHEMBL1201862, “PubChem BioAssay data set” (2004)
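All cell lines were grown in 96-well plates and treated with compound for 48 hours. GI50 = concentration required for 50% inhibition of growth.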 Activity calls are given as the source filed them. Cut-off read from the data, not from the text of the source: active = GI50 up to about 1.1 µM and inactive = higher.

Assays:
Assay in all cases: NCI anticancer screen, dose series, 48 h
[1] = system: SNB-78
[2] = system: DMS-114
[3] = system: KM-20L2
[4] = system: HOP-18
[5] = system: LXFL 529
[6] = system: M19-MEL
[7] = system: RXF 631
[8] = system: MDA-N
[9] = system: XF498

Row | SMILES | GI50 [1] | GI50 [2] | GI50 [3] | GI50 [4] | GI50 [5] | GI50 [6] | GI50 [8] | also measured
1 | CCCCC1CC(c2cccc([N+](=O)[O-])c2)=NO1 (stereo not given) | > 100 µM (inactive) | 40.6 µM (inactive) | > 100 µM (inactive) | 80.4 µM (inactive) | 56.5 µM (inactive) | 74.6 µM (inactive) |  | GI50 [7]: 80.7 µM (inactive)
2 | CN(C(=O)C1CC1)C1C2CN3CCC(O2)C13 (stereo not given) | 94.4 µM (inactive) | > 100 µM (inactive) | > 100 µM (inactive) | > 100 µM (inactive) | > 100 µM (inactive) | > 100 µM (inactive) |  | 
3 | COc1cc2c3c(cc(Cl)nc3c1OC)C(O)(CC(C)=O)C(=O)N2 (stereo not given) |  |  |  |  |  |  | 17.3 µM (inactive) | 
4 | Cc1nc2c(o1)C(=O)c1ccccc1/C2=N/c1ccc(N2CCOCC2)cc1 |  |  |  |  |  |  | 1.93 µM (inactive) | 
5 | CCOC(=O)c1ccc(-c2cccs2)[nH]1 |  |  |  |  |  |  | 66.8 µM (inactive) | 
6 | CC(=O)OC1CC(n2cc(F)c(=O)[nH]c2=O)OC1CO (stereo not given) | > 100 µM (inactive) | 1.36 µM (inactive) | 0.962 µM (active) | 6.61 µM (inactive) | 0.575 µM (active) | > 100 µM (inactive) | 24.3 µM (inactive) | GI50 [9]: 13.7 µM (inactive)
7 | CSc1nc(-c2ccccc2)nc(C(C#N)C#N)n1 |  |  |  |  |  |  | > 100 µM (inactive) | 
8 | CNC(=S)NN=C1NCCCCN1 |  |  |  |  |  |  | > 100 µM (inactive) | 
9 | Cc1cc(NS(=O)(=O)c2ccc(NC(=O)c3ccc(Cl)c4c(Nc5ccc(S(=O)(=O)Nc6cc(C)on6)cc5)c5ccccc5nc34)cc2)no1 | 36.1 µM (inactive) | 18.5 µM (inactive) | 21.5 µM (inactive) | 15.8 µM (inactive) | 21.6 µM (inactive) | 22.9 µM (inactive) |  | GI50 [9]: 31.8 µM (inactive)
10 | COc1cc(/C=N/c2nc3cc4sc(/N=C/c5cc(OC)c(OC)c(OC)c5)nc4cc3s2)cc(OC)c1OC |  |  |  |  |  |  | 27 µM (inactive) | 
11 | CC1=CC(=O)/C(=C/NC(=S)NCCc2ccccc2)C(=O)O1 |  |  |  |  |  |  | > 100 µM (inactive) | 
12 | Cc1ccc(C2(c3ccc(F)cc3)OC(=O)c3ccccc32)c(O)c1 (stereo not given) |  |  |  |  |  |  | 12 µM (inactive) | 
13 | NC(Cc1nnn[nH]1)C(=O)O (stereo not given) |  |  |  |  |  |  | > 100 µM (inactive) | 
14 | C=C1C(=O)O[C@@H]2C[C@@H]3[C@]4(CC[C@]5(C)[C@@H]([C@H](C)CC/C=C(\C)C=O)CC[C@@]35C)C[C@]4(CCC(=O)OC)[C@H]12 |  |  |  |  |  |  | 1.61 µM (inactive) | 
15 | CN(/N=C/c1ccnc2ccccc12)c1ccc([N+](=O)[O-])cc1[N+](=O)[O-] | 42.3 µM (inactive) | > 100 µM (inactive) | > 100 µM (inactive) | > 100 µM (inactive) | 42.6 µM (inactive) | > 100 µM (inactive) |  | GI50 [9]: > 100 µM (inactive)
